Laboratory results as given in patent US20100068181A1, “PYRROLO [3, 2-A] PYRIDINE DERIVATIVES FOR INHIBITING KSP KINESIN ACTIVITY” (Schering Corporation, priority 2006, published 2010).

Biological target: T1, KSP (Homo sapiens, UniProt P52732)
T1 sequence (P52732 1-1056): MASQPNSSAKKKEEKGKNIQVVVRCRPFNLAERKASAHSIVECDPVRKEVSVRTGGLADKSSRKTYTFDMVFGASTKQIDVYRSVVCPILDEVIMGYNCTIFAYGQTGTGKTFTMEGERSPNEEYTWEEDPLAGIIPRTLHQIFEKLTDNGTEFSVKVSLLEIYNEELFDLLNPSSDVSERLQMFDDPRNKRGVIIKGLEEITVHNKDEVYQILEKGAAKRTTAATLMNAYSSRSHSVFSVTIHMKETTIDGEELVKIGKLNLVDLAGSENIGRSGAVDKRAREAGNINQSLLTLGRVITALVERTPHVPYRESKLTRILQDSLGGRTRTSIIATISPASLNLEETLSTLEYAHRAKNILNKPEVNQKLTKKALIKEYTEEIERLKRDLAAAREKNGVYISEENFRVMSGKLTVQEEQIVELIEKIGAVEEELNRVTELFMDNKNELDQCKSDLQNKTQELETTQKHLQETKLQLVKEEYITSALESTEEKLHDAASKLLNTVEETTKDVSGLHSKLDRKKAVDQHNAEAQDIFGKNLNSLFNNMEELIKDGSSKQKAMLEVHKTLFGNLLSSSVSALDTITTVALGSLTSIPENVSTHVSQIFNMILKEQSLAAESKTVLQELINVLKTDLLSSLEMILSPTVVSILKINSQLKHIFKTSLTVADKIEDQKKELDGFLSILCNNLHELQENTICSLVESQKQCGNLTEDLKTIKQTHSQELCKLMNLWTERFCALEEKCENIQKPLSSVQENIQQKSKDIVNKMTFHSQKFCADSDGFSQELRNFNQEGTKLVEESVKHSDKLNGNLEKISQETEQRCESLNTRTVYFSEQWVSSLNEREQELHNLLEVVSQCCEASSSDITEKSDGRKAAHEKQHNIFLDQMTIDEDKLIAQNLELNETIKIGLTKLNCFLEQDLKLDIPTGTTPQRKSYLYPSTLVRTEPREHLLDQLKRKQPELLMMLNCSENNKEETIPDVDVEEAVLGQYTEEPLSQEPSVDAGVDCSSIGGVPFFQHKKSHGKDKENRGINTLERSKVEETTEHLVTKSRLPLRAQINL
Assay: KSP inhibitory activity, end-point assay
Format: biochemical
Conditions: KSP inhibitory activity based on end-point assay; read-out: IC50 Rating
Source text: The inhibitory activity of the present compounds towards KSP may be assayed by methods known in the art, for example, by using the methods as described in the examples.

| IC50 [µM] | SMILES |
| --- | --- |
| > 10 | CC(C)(C)C1CCc2nc3c(Br)c(C(N)=O)[nH]c3cc2C1 (stereo not drawn) [Example 35] |
| > 10 | Cc1[nH]c2cc3c(nc2c1CCO)CCC(C(C)(C)C)C3 (stereo not drawn) [Example 36] |
| > 10 | CC(C)(C)C1CCc2nc3c(CCO)c(CO)[nH]c3cc2C1 (stereo not drawn) [Example 37] |
| > 10 | CCOC(=O)c1[nH]c2cc3c(nc2c1/C=C/C(=O)OC)CCC(C(C)(C)C)C3 (stereo not drawn) [Example 39] |
| 1 to 10 | CC(C)(C)C1CCc2nc3c(CCC(N)=O)c(C(N)=O)[nH]c3cc2C1 (stereo not drawn) [Example 40] |
| 1 to 10 | CC(C)(C)C1CCc2nc3c(CCC#N)c(C#N)[nH]c3cc2C1 (stereo not drawn) [Example 41] |
| > 10 | CC(=O)NC(Cc1c(C(N)=O)[nH]c2cc3c(nc12)CCC(C(C)(C)C)C3)C(N)=O (stereo not drawn) [Example 44] |
| > 10 | CCOC(=O)c1[nH]c2cc3c(nc2c1C)CCC(C(C)(C)C)C3 (stereo not drawn) [Example 45] |
| > 10 | Cc1c(C(N)=O)[nH]c2cc3c(nc12)CCC(C(C)(C)C)C3 (stereo not drawn) [Example 46] |
| > 10 | CCOC(=O)c1[nH]c2cc3c(nc2c1CC)CCC(C(C)(C)C)C3 (stereo not drawn) [Example 47] |
| 1 to 10 | CCc1c(C(N)=O)[nH]c2cc3c(nc12)CCC(C(C)(C)C)C3 (stereo not drawn) [Example 48] |
| > 10 | CCOC(=O)c1[nH]c2cc3c(nc2c1CCCO)CCC(C(C)(C)C)C3 (stereo not drawn) [Example 49] |
| 0.1 to 1 | CC(C)(C)C1CCc2nc3c(CCCO)c(C(N)=O)[nH]c3cc2C1 (stereo not drawn) [Example 50] |
| > 10 | CCOC(=O)c1[nH]c2cc3c(nc2c1CCCN)CCC(C(C)(C)C)C3 (stereo not drawn) [Example 51] |
| > 10 | CC(C)(C)OC(=O)NCCCc1c(C(N)=O)[nH]c2cc3c(nc12)CCC(C(C)(C)C)C3 (stereo not drawn) [Example 52] |
| > 10 | CC(C)(C)C1CCc2nc3c(CCCN)c(C(N)=O)[nH]c3cc2C1 (stereo not drawn) [Example 53] |
| > 10 | CCOC(=O)c1[nH]c2cc3c(nc2c1CC(O)CO)CCC(C(C)(C)C)C3 (stereo not drawn) [Example 54] |
| > 10 | CC(C)(C)C1CCc2nc3c(CC(O)CO)c(C(N)=O)[nH]c3cc2C1 (stereo not drawn) [Example 55] |
| > 10 | CC(C)(C)C1CCc2nc3c(C#CCCO)c(C(N)=O)[nH]c3cc2C1 (stereo not drawn) [Example 56] |
| 0.1 to 1 | CC(C)(C)C1CCc2nc3c(CCCCO)c(C(N)=O)[nH]c3cc2C1 (stereo not drawn) [Example 57] |
| > 10 | CC(C)(C)C1CCc2nc3c(C#CCCCO)c(C(N)=O)[nH]c3cc2C1 (stereo not drawn) [Example 58] |
| 1 to 10 | CC(C)(C)C1CCc2nc3c(CCCCCO)c(C(N)=O)[nH]c3cc2C1 (stereo not drawn) [Example 59] |
| 0.1 to 1 | CCc1c(C(=O)NCCN)[nH]c2cc3c(nc12)CCC(C(C)(C)C)C3 (stereo not drawn) [Example 60] |

| IC50 [µM] | SMILES |
| --- | --- |
| > 10 | CCOC(=O)c1[nH]c2cc3c(nc2c1NC(=O)COC(C)=O)CCC(C(C)(C)C)C3 (stereo not drawn) [Example 62] |
| 1 to 10 | CC(C)(C)C1CCc2nc3c(NC(=O)CO)c(C(N)=O)[nH]c3cc2C1 (stereo not drawn) [Example 63] |
| > 10 | CCOC(=O)c1[nH]c2cc3c(nc2c1NCCOC)CCC(C(C)(C)C)C3 (stereo not drawn) [Example 64] |
| > 10 | CCOC(=O)c1[nH]c2cc3c(nc2c1NCCO)CCC(C(C)(C)C)C3 (stereo not drawn) [Example 65] |
| 1 to 10 | CC(C)(C)C1CCc2nc3c(NCCO)c(C(N)=O)[nH]c3cc2C1 (stereo not drawn) [Example 66] |
| > 10 | CCOC(=O)c1[nH]c2cc3c(nc2c1NCCCO)CCC(C(C)(C)C)C3 (stereo not drawn) [Example 67] |
| 1 to 10 | CC(C)(C)C1CCc2nc3c(NS(C)(=O)=O)c(C(N)=O)[nH]c3cc2C1 (stereo not drawn) [Example 68] |
| > 10 | CCOC(=O)c1c(Cl)[nH]c2cc3c(nc12)CCC(C(C)(C)C)C3 (stereo not drawn) [Example 69] |
| > 10 | CCOC(=O)c1c[nH]c2cc3c(nc12)CCC(C(C)(C)C)C3 (stereo not drawn) [Example 70] |
| > 10 | COC(=O)c1c[nH]c2cc3c(nc12)CCC(C(C)(C)C)C3 (stereo not drawn) [Example 71] |
| 1 to 10 | CC(C)(C)C1CCc2nc3c(C(=O)NCCO)c[nH]c3cc2C1 (stereo not drawn) [Example 72] |
| > 10 | CC(C)(C)C1CCc2nc3c(C(=O)NCCN)c[nH]c3cc2C1 (stereo not drawn) [Example 73] |
| > 10 | C[C@@H](CO)NC(=O)c1c[nH]c2cc3c(nc12)CCC(C(C)(C)C)C3 (stereo partly drawn) [Example 76] |
| > 10 | C[C@H](CO)NC(=O)c1c[nH]c2cc3c(nc12)CCC(C(C)(C)C)C3 (stereo partly drawn) [Example 77] |
| > 10 | C=CCNC(=O)c1c[nH]c2cc3c(nc12)CCC(C(C)(C)C)C3 (stereo not drawn) [Example 78] |
| 0.1 to 1 | CC(C)(C)C1CCc2nc3c(C(=O)NN)c[nH]c3cc2C1 (stereo not drawn) [Example 79] |
| 0.1 to 1 | CC(C)(C)C1CCc2nc3c(C(N)=O)c[nH]c3cc2C1 (stereo not drawn) [Example 82] |
| < 0.1 | CC(C)(C)C1CCc2nc3cc[nH]c3cc2C1 (stereo not drawn) [Example 83] |
| 1 to 10 | CC(=O)Nc1c[nH]c2cc3c(nc12)CCC(C(C)(C)C)C3 (stereo not drawn) [Example 84] |
| > 10 | CC(C)(C)C1CCc2nc3c(CC(N)=O)c(O)[nH]c3cc2C1 (stereo not drawn) [Example 85] |
| 0.1 to 1 | CC(C)(C)C1CCc2nc3cc(C(=O)Nc4nnn[nH]4)[nH]c3cc2C1 (stereo not drawn) [Example 96] |
| > 10 | CNNC(=O)c1cc2nc3c(cc2[nH]1)CC(C(C)(C)C)CC3 (stereo not drawn) [Example 100] |

Continued, molecule first:

| SMILES | IC50 [µM] |
| --- | --- |
| CCOC(=O)c1cc2nc3c(cc2n1C(C)=O)CC(C(C)(C)C)CC3 (stereo not drawn) [Example 42] | > 10 |
| CC(C)(C)C1CCc2nc3cc(/C=N/NC(N)=S)[nH]c3cc2C1 (stereo not drawn) [Example 43] | > 10 |
| CC(C)(C)C1CCc2nc3c(C(=O)NCCN4CCNCC4)c[nH]c3cc2C1 (stereo not drawn) [Example 74] | > 10 |
| CC(C)(C)C1CCc2nc3c(C(=O)NCc4cccnc4)c[nH]c3cc2C1 (stereo not drawn) [Example 75] | > 10 |
| CC(C)(C)C1CCc2nc3c(C(=O)NCCCO)c[nH]c3cc2C1 (stereo not drawn) [Example 80] | 1 to 10 |
| COCCOCc1cc2nc3c(cc2[nH]1)CC(C(C)(C)C)CC3 (stereo not drawn) [Example 86] | 0.1 to 1 |
| COCc1cc2nc3c(cc2[nH]1)CC(C(C)(C)C)CC3 (stereo not drawn) [Example 87] | 0.1 to 1 |
| CCOCc1cc2nc3c(cc2[nH]1)CC(C(C)(C)C)CC3 (stereo not drawn) [Example 88] | 0.1 to 1 |
| CC(C)OCc1cc2nc3c(cc2[nH]1)CC(C(C)(C)C)CC3 (stereo not drawn) [Example 89] | > 10 |
| CC(C)(C)C1CCc2nc3cc(C(=O)NCc4ccc5c(c4)OCO5)[nH]c3cc2C1 (stereo not drawn) [Example 90] | > 10 |
| CC(C)(C)C1CCc2nc3cc(C(=O)NCc4ccccn4)[nH]c3cc2C1 (stereo not drawn) [Example 91] | > 10 |
| CC(C)(C)C1CCc2nc3cc(C(=O)NCCN4CCNCC4)[nH]c3cc2C1 (stereo not drawn) [Example 92] | 1 to 10 |
| Cc1cc(C)n(C(=O)c2c[nH]c3cc4c(nc23)CCC(C(C)(C)C)C4)n1 (stereo not drawn) [Example 93] | > 10 |
| CC(C)(C)C1CCc2nc3c(C(=O)Nc4ncccn4)c[nH]c3cc2C1 (stereo not drawn) [Example 94] | > 10 |
| CC(C)(C)C1CCc2nc3cc(C(=O)NNc4ccccc4)[nH]c3cc2C1 (stereo not drawn) [Example 95] | > 10 |
| CC(C)(C)C1CCc2nc3cc(C(=O)Nc4ccncc4)[nH]c3cc2C1 (stereo not drawn) [Example 97] | 0.1 to 1 |
| CCOC(=O)c1cc(NC(=O)c2cc3nc4c(cc3[nH]2)CC(C(C)(C)C)CC4)c[nH]1 (stereo not drawn) [Example 98] | > 10 |
| CC(C)(C)C1CCc2nc3cc(C(=O)NNCCC#N)[nH]c3cc2C1 (stereo not drawn) [Example 99] | > 10 |
| CC(C)(C)C1CCc2nc3cc(C(=O)NNc4ccccn4)[nH]c3cc2C1 (stereo not drawn) [Example 101] | 0.1 to 1 |
| CC(C)(C)C1CCc2nc3cc(C(=O)Nc4ccc(O)cc4)[nH]c3cc2C1 (stereo not drawn) [Example 102] | 0.1 to 1 |
| CC(C)(C)[C@@H]1CCc2nc3cc(C(=O)Nc4ccc(O)cc4)[nH]c3cc2C1 [Example 103A] | 0.1 to 1 |
| CC(C)(C)[C@H]1CCc2nc3cc(C(=O)Nc4ccc(O)cc4)[nH]c3cc2C1 [Example 103B] | > 10 |
| CC(C)(C)C1CCc2nc3cc(C(=O)Nc4ccc(N)nc4)[nH]c3cc2C1 (stereo not drawn) [Example 104] | 0.1 to 1 |
| CC(C)(C)C1CCc2nc3cc(C(=O)Nc4ccc(CCO)cc4)[nH]c3cc2C1 (stereo not drawn) [Example 105] | 1 to 10 |
| CC(C)(C)C1CCc2nc3cc(C(=O)N[C@H](CO)c4ccccc4)[nH]c3cc2C1 (stereo partly drawn) [Example 106] | 0.1 to 1 |
| CC(C)(C)C1CCc2nc3cc(C(=O)N[C@@H](CO)c4ccccc4)[nH]c3cc2C1 (stereo partly drawn) [Example 107] | > 10 |
| CC(C)(C)C1CCc2nc3cc(C(=O)N[C@H](CO)Cc4ccccc4)[nH]c3cc2C1 (stereo partly drawn) [Example 108] | > 10 |
| CC(C)(C)C1CCc2nc3cc(C(O)c4ccccc4)[nH]c3cc2C1 (stereo not drawn) [Example 109] | > 10 |
| COc1cccc(C(O)c2cc3nc4c(cc3[nH]2)CC(C(C)(C)C)CC4)c1 (stereo not drawn) [Example 110] | > 10 |
| COc1ccc(C(O)c2cc3nc4c(cc3[nH]2)CC(C(C)(C)C)CC4)cc1 (stereo not drawn) [Example 111] | > 10 |
